The results in this text go back to ChEMBL document CHEMBL1201862, “PubChem BioAssay data set” (2004).

The structures appear in SMILES notation. Calls of active or inactive are those of the source.

Test [1] addresses T1, Heat shock factor protein 1 (Mus musculus, UniProt P38532).
T1 sequence (P38532 whole entry): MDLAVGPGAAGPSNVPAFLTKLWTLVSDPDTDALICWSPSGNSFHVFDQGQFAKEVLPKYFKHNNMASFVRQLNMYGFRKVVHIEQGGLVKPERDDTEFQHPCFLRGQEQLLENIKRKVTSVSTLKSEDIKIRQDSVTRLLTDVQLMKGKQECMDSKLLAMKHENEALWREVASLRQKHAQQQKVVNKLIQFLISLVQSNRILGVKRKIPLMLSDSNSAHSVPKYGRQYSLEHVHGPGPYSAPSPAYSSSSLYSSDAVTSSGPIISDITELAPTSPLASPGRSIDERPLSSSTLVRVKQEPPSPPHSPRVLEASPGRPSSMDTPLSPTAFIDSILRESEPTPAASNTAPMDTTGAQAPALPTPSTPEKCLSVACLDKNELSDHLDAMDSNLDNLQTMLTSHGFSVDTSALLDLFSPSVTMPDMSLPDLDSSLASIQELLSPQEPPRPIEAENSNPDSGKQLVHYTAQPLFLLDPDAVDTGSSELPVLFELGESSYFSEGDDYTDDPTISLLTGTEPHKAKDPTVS
Briefly: HSF1 potentiators in luciferase reporter cells, confirmation, cell-based, NIH3T3, luminescence, dose retest (AID 435004).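 Also: stress induced by proteasome inhibitor MG132 added 30 min after compound; luciferase reporter driven by HSF1 response element in NIH3T3 cells; actives raise luminescence as potentiators of the MG132 stress response.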 The test is classed as functional.

In test [2] the target is T2, Oxysterols receptor LXR-beta (Homo sapiens, UniProt P55055).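 Also: agonist activity at LXR measured by a cell-based luminescence readout across a dose range, run as a counterscreen for daf-12 agonists; HEK293 cells with Gal4-LXR fusion and GAL4-driven luciferase reporter; potency for activation of Gal4-LXR reporter so compounds are agonists.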
T2 sequence (P55055 whole entry): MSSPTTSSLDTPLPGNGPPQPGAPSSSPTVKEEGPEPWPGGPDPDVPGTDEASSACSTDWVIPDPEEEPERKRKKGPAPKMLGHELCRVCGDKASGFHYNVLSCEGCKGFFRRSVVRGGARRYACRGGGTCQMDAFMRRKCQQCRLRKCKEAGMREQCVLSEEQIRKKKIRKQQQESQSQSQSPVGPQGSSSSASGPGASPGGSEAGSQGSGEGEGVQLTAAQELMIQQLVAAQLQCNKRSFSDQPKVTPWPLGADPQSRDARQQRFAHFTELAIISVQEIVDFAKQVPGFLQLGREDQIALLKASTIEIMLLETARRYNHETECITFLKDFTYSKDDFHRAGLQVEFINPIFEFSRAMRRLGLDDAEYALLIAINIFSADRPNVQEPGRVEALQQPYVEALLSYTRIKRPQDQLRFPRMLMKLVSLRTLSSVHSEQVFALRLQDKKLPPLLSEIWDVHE
Format: functional, cell-based.

For test [3], the target named is T3, Caspase-3 (Homo sapiens, UniProt P42574).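 Also: Dose-response selectivity test against caspase-3 for candidate inhibitors of sentrin-specific proteases (SENPs).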
T3 sequence (P42574 whole entry): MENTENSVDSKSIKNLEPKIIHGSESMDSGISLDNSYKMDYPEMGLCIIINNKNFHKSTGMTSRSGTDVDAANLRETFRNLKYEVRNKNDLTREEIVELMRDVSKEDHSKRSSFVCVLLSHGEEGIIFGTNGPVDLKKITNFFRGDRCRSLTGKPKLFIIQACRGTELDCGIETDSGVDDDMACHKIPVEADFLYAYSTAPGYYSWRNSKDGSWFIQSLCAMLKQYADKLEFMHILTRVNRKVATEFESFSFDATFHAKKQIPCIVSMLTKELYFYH
Format: functional.

The target in test [4] is T4, Sentrin-specific protease 7 (Homo sapiens, UniProt Q9BQF6).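 Also: Luminescence-based dose-response confirmation of ultra-high-throughput screening hits, measuring inhibition of SENP7.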
T4 sequence (Q9BQF6 whole entry): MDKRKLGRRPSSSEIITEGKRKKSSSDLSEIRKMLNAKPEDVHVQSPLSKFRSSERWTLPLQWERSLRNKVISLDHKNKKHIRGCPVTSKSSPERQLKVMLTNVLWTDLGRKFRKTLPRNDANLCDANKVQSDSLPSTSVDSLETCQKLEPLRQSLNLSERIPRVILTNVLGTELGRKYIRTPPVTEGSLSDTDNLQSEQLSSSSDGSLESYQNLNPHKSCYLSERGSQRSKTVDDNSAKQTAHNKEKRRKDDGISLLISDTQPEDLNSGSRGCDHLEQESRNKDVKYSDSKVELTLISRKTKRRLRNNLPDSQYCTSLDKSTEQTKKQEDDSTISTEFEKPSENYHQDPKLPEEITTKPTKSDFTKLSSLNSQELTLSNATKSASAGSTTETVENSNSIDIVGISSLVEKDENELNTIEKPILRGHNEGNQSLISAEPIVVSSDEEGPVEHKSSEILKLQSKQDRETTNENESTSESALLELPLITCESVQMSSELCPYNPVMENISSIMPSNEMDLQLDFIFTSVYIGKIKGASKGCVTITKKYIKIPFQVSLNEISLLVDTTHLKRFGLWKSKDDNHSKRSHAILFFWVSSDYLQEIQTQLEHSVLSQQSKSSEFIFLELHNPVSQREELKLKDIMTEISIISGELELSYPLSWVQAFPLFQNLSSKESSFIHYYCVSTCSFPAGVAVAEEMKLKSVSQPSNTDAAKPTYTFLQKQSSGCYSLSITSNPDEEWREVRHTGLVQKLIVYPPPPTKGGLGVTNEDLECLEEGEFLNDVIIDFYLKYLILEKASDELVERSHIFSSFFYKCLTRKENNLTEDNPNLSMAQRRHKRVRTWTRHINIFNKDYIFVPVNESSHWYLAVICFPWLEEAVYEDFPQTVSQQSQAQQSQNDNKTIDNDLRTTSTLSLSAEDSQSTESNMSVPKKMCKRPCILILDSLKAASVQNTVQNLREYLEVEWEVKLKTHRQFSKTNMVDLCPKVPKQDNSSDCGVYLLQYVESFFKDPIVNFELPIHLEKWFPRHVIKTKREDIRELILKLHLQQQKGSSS
The test is classed as functional.

Test [5] has as its target T5, Sentrin-specific protease 6 (Homo sapiens, UniProt Q9GZR1).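 Also: Luminescence-based dose-response confirmatory assay of SENP6 inhibition, following up an ultra-high-throughput screen.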
T5 sequence (Q9GZR1 whole entry): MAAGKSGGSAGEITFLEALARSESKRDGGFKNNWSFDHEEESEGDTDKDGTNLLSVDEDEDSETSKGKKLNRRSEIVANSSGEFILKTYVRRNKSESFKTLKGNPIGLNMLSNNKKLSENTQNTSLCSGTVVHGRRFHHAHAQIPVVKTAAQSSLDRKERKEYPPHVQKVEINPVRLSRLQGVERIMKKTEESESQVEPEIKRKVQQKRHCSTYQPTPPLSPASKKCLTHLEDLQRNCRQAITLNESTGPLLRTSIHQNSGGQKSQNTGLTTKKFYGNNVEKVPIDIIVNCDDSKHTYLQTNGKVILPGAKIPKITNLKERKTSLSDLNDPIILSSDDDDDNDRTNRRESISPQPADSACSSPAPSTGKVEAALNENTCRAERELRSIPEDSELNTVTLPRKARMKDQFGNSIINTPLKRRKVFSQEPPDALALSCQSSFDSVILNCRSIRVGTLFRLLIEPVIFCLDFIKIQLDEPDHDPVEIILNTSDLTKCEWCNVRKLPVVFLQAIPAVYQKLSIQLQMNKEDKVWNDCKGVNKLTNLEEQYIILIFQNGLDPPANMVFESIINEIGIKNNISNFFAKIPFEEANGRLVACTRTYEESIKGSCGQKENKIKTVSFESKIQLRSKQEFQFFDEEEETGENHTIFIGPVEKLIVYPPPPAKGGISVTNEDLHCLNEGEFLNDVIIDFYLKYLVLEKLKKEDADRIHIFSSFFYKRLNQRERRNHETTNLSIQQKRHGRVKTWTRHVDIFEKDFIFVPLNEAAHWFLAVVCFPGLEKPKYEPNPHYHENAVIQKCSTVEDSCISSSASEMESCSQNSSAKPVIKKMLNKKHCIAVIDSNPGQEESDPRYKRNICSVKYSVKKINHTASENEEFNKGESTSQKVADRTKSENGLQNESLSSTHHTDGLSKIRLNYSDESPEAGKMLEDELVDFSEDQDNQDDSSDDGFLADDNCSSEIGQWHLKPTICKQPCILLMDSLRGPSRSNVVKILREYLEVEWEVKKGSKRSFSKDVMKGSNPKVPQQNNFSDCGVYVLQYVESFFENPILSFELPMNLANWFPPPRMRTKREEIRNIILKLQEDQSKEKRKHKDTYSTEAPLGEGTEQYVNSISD
The test is classed as functional.

Test [6] addresses T6, Sentrin-specific protease 8 (Homo sapiens, UniProt Q96LD8).
T6 sequence (Q96LD8 whole entry): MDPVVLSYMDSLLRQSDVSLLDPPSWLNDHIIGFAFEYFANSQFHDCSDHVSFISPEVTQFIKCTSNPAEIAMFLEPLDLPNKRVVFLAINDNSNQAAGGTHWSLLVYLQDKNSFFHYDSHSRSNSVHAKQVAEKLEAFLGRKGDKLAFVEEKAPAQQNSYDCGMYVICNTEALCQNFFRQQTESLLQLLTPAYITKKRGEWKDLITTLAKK
Format: functional.

The nature of test [7]: inhibitors of HIV Env-driven cell fusion, dose response, cherry-pick (AID 652057). The test is classed as functional, cell-based.
A short description of test [8]: ZM109 Env clade C HIV-1 fusion inhibitors, dose response, HeLa effector, CEM target cells, luciferase, cherry-pick (AID 652058). The test is classed as functional, cell-based.
The nature of test [9]: off-target signal loss in HeLa-CEM21 co-culture – HeLa F-luc CTL cells, cherry-picked, counter-screen for HIV-1 Env fusion inhibitor project, dose response (AID 652040).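 Also: potency for signal decrease marking cytotoxic or nonspecific inhibition.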 Format: functional, cell-based.
Test [10] in a line: inhibitors of clade B AD8 Env fusion, dose response, cell-based, cherry-pick (AID 652062).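 Also: luciferase signal from cell-cell fusion driven by HIV-1 clade B AD8 Env; potency is for inhibitors of fusion seen as a drop in luminescence.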 Format: functional.
Test [11] can be described thus: P. falciparum 3D7-ScDHODH growth inhibitors, dose response, SYBR Green, dry powder samples (AID 1159570).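 Also: parasite growth measured after 72 hours of compound exposure.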 Format: functional, cell-based.
Test [12] in a line: HepG2 cell cytotoxicity, dose response, cytotoxicity control, plate reader, dry powder samples (AID 1159569).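 Also: inhibitor potency with signal falling toward the positive control level.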 Format: functional, cell-based.
Test [13] can be described thus: P. falciparum Dd2 growth inhibitors, dose response, SYBR Green, dry powder samples (AID 1159566).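 Also: potency for growth inhibition with lower SYBR green DNA signal.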 The test is classed as functional, cell-based.
The nature of test [14]: P. falciparum ATP4 D1247Y mutant growth inhibitors, dose response, NITD609-resistant line, SYBR Green, dry powder (AID 1159571).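 Also: parasites synchronized at ring stage by sorbitol before testing.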 Format: functional, cell-based.
Test [15] concerns the target Heat shock protein HSP 90-alpha (Homo sapiens, UniProt P07900). The test is classed as functional, organism-based.

By EC50 is commonly meant the concentration that produces a half-maximal response. For `Cc1ccc(CN2CCN(CC(C)C)C(CCO)C2)s1` (stereo unspecified), the figures for the EC50 in test [1] and in test [2] were 98.2 µM (active) and > 67.6 µM (inactive), respectively.

For `CCOC(=O)c1c(C)oc2c1cc(O)c1ccccc12`, the EC50 in [2] was > 67.5 µM (inactive).

As a reminder, the IC50 is the midpoint of a concentration-inhibition curve. On to `Cc1cc(C)c(O)c(-c2cc(C(=O)Nc3cccnc3)[nH]n2)c1`, for which the IC50 in test [3] was 31.4 µM (active); in test [4] it was 4.68 µM (active); in [5] it was > 100 µM (inactive); in test [6], > 100 µM (inactive).

In the case of `c1cncc(-c2noc(-c3ccc4ccccc4c3)n2)c1`, the EC50 in test [2] was > 67.5 µM (inactive).

With `COc1ccc(-n2nc3cc(N)c(Br)cc3n2)cc1`, the IC50 in test [3] is 13.3 µM (active); in [4], 5.03 µM (active); in test [5] it was 8.1 µM (active); in [6], 11 µM (active).

Consider `Cc1ccc(OCc2nc(-c3cccs3)no2)c([N+](=O)[O-])c1`, for which the IC50 is 21.4 µM (active) in test [3], 5.51 µM (active) in [4], 11.9 µM (active) in test [5] and 10.2 µM (active) in test [6].

Take `Cc1ccc(-c2noc(CSc3ccccc3)n2)cc1`: the IC50 was 25.5 µM (active) in [3], 6.8 µM (active) in [4], 36.4 µM (active) in [5] and 13.7 µM (active) in test [6].

For the molecule `CC(=O)c1sc(Nc2nc3ccc(F)cc3s2)nc1C`, the IC50 in test [3] is 18.8 µM (active); in test [4], 5.6 µM (active); in [5] it was 11.2 µM (active); in test [6], 16 µM (active).

As for `CNC(=O)c1ccsc1NC(=O)c1ccc2c(c1)CCCC2`, the IC50 in [3] was 28.4 µM (active); in [4] it was 5.37 µM (active); in test [5] it was 8.31 µM (active); in test [6] it was 17.9 µM (active).

On to `COc1ccc(/C=C2/CCc3ccccc3C2=O)cc1OC`, for which the IC50 in [3] was 32.2 µM (active); in test [4], 8.88 µM (active); in test [5], 18 µM (active); in test [6], 17 µM (active).

Turning to `CCCCSc1ncnc2c1ncn2C1CCCCO1` (stereo unspecified), the EC50 in [2] is > 67.4 µM (inactive).

`O=C(NNCc1ccccc1)c1ccccn1`: the EC50 in [2] is > 67.6 µM (inactive).

As usually defined, the AC50 is the concentration giving half of the maximal activity seen. Turning to `C[C@H]1CNC(=O)c2c(C(=O)N3CCN(c4ccccc4)CC3)ncn21`, the AC50 in test [7] was 4.6 µM (active); in test [8], 3.25 µM (active); in [9], 9.62 µM (active); in test [10], 7.04 µM (active).

Consider `CCCC#Cc1ccc2c(c1)O[C@@H](CN(C)C(=O)C1CCCCC1)[C@H](C)CN([C@H](C)CO)S2(=O)=O`, for which the results for the AC50 in test [7] and in test [8] were 21.7 µM (active) and 13.3 µM (active), respectively.

With `C#CCNC(=O)C[C@H]1C[C@@]2(C(=O)OC)C(=C[C@H](C(C)C)O[C@@H]2C2CC2)N(CCCCCCCC)C1=O`, in [2], the EC50 is > 67.5 µM (inactive).

As for `COc1cccc(NC(=O)N(C)C[C@@H]2Oc3cc(C#Cc4ccccc4)ccc3S(=O)(=O)N([C@@H](C)CO)C[C@@H]2C)c1`, the AC50 in [11] was 1.14 µM (active); in [12], > 100 µM (inactive); in [13], 1.33 µM (active); in [14], 1.35 µM (active).

For `Cc1cc(C)c(S(=O)(=O)N2CCC(C(=O)NCc3ccc(Cl)cc3Cl)CC2)c(C)c1`, the AC50 in test [15] is < 0.195 µM (active).
